Reference: a melting point compilation (Tetko et al.; mined from patent text by program, amines drawn as free bases though some values may be those of a salt)

Work on `Cc1noc(NS(=O)(=O)c2cccc(-c3ccccc3)c2)c1Cl` yielded a melting point of 84 to 86 °C.
Work on `CN(C)CCCCCCCOc1ccc2oc(-c3ccccc3)cc(=O)c2c1` yielded a melting point of 90 to 91 °C.
Work on `O=C(Cc1cc(F)cc(F)c1)NCC(=O)N[C@@H]1C(=O)Nc2ccccc2S[C@@H]1c1ccccc1` yielded a melting point of 125 to 130 °C.
`O=C1C=C(c2ccccc2)C(=Nc2ccccc2)N1` gave a melting point of 180 to 183 °C.
In the case of `CN(C=O)c1ccc(F)c(Cl)c1`, the melting point is reported as 47 to 48 °C.
In the case of `COc1cccc(-c2nc3ccc(OC(F)(F)F)cc3[nH]2)c1`, the melting point is reported as 192 to 194 °C.
`Cc1cc(CCCOc2ccc(-c3noc(C(F)(F)F)n3)cc2C)on1` showed a melting point of 69 to 70 °C.
In the case of `COc1ccc2c(c1)N(C)C(=O)C2C` (stereo unspecified), the melting point is reported as 44 to 46 °C.
Molecule `O=C1CN(Cc2ccc(CCn3cnc4cc(-c5ccc(Cl)cc5)sc4c3=O)cc2)CCN1` has a melting point of 232 to 234 °C.
In the case of `CC(O)CNc1c(F)cc2c(=O)c(C(=O)O)cn(-c3cc(N)c(F)cc3F)c2c1Cl` (stereo unspecified), the melting point is reported as 225 to 226 °C.
`Nc1ccc(S(=O)(=O)c2cc(-c3cccc([N+](=O)[O-])c3)nc(N3CCCC3)c2)cc1` gave a melting point of 249 to 251 °C.
With `CC(C)(CO)c1ccc(C(O)CCCN2CCC(=C3c4ccccc4CCc4ccccc43)CC2)cc1` (stereo unspecified) the melting point was 157 to 159 °C.
With `O=C(O)CN(CC(=O)O)c1cccc(N(CC(=O)O)CC(=O)O)c1` the melting point was 188 °C.
`Cc1ccc2c3c(ccc2n1)OC[C@H](CN1CCN(c2ccc4ccccc4n2)C[C@@H]1C)O3` gave a melting point of 78 to 82 °C.
Work on `CC(=O)N1c2ccccc2CC1c1ccccc1NC(=O)C(C)(C)C` (stereo unspecified) yielded a melting point of 184 to 186 °C.
`CS(=O)(=O)N1Cc2nc3c(N)nc4ccccc4c3n2CC(O)C1` (stereo unspecified) showed a melting point of 282 to 283 °C.
Molecule `COc1ccc(C(=O)Nc2ccccc2)cc1NC(=S)Nc1ccc(Cl)cc1` has a melting point of 179 to 180 °C.
With `c1cc2c(cc1-c1nnc(SCC3CC3)o1)CCO2` the melting point was 57 to 58 °C.
With `CC(CNS(=O)(=O)c1ccccc1)c1ccc(OCC(=O)O)c(F)c1` (stereo unspecified) the melting point was 49 to 51 °C.
`COc1ccc(-c2nc3c(C(=O)NC4CC5CCCC(C4)N5C)cccc3o2)cc1` (stereo unspecified) showed a melting point of 103 to 105 °C.
In the case of `COc1ccc(C(=O)c2ccc(=O)[nH]c2C)cc1`, the melting point is reported as 228 to 230 °C.
With `Cn1c(=S)c(-c2cccs2)nc2ccccc21` the melting point was 113 °C.
`CC(=O)N1CCC(n2ccc(-c3ccc(F)cc3)c2-c2ccncc2)CC1` showed a melting point of 223 to 224 °C.
With `OC1(c2ccc(C(F)(F)F)cc2)CCNCC1` the melting point was 130 to 132 °C.
Work on `Nc1cccc2nc(=O)cccc12` yielded a melting point of 175 to 178 °C.
With `CCCc1nc2c(N)nc3ccccc3c2n1CCCC(CC(C)C)=NO` the melting point was 207 to 209 °C.
Work on `Cc1c(CCC(=O)O)c2cc(Br)ccc2n1Cc1ccc(Br)cc1` yielded a melting point of 169 to 170 °C.
In the case of `COc1cc(Nc2c(C#N)cnc3cc(OCCCN4CCN(C)CC4)c(OC)cc23)c(Cl)cc1Cl`, the melting point is reported as 116 to 120 °C.
For `Cc1cc(OCc2coc(/C=C/c3ccc(S(=O)C(F)(F)F)cc3)n2)ccc1CCCCc1c[nH]nn1` (stereo unspecified), the melting point was 113 to 114 °C.
With `COc1cc2c(cc1C)C(=O)CCC2` the melting point was 104 to 107 °C.
Work on `CC1=CN(c2ccc(Cl)c(Cl)c2)SC1` yielded a melting point of 160 to 161 °C.
`O=C1CCC(CCc2ccc(-n3ccnc3)cc2)=NN1` gave a melting point of 195 to 196 °C.
In the case of `O=C1C=C(NC(=O)C(=O)c2cn(Cc3cccc(Br)c3)c3ccccc23)CO1`, the melting point is reported as 278 to 280 °C.
In the case of `CCN1OCCC(=Cc2cc(C(C)(C)C)c(O)c(C(C)(C)C)c2)C1=O`, the melting point is reported as 166 to 167 °C.
With `CC(C)C(=O)N(C(=O)OC(C)(C)C)C(CC(N)C(=O)OCc1ccccc1)C(N)=O` (stereo unspecified) the melting point was 112 to 113 °C.
`COc1ccc(N)cc1C(=O)O` gave a melting point of 163 to 166 °C.
In the case of `CCN(CC)C(=O)NC1CC2c3cccc4[nH]c(CC#CO)c(c34)CC2N(C)C1` (stereo unspecified), the melting point is reported as 151 to 154 °C.
`Cc1ccc(C(O)C2C(c3ccccc3)CC(=O)N2C)s1` (stereo unspecified) gave a melting point of 185 to 188 °C.
`CCOC(=O)c1[nH]c2ccc(Cl)c(F)c2c1S(=O)(=O)c1cc(C)cc(C)c1` gave a melting point of 224 to 226 °C.
`Cc1c(C=O)c2cc(Cl)ccc2n1-c1ccc(O)cc1` gave a melting point of over 240 °C.
`CN1C(C)(C)CC(OP2OCC3(CO2)COP(OC2CC(C)(C)N(C)C(C)(C)C2)OC3)CC1(C)C` (stereo unspecified) showed a melting point of 106 °C.
With `Cc1ccc2c(c1)C=Cc1ncccc1C2c1c[nH]c(=O)[nH]c1=S` (stereo unspecified) the melting point was over 250 °C.
`CCCCNC(=O)ON1C(C)(C)CC(OC(=O)c2cccc(C(=O)OC3CC(C)(C)N(OC(=O)NCCCC)C(C)(C)C3)c2)CC1(C)C` showed a melting point of 176 to 177 °C.
For `CCC(=O)N(C(=O)CC)c1c(OCc2ccccc2)cc(Br)cc1[N+](=O)[O-]`, the melting point was 90 to 92 °C.
For `O=[N+]([O-])c1ccc(CN2CCCCc3sccc32)cc1`, the melting point was 141 to 142 °C.
Molecule `CC(=O)NS(=O)(=O)c1ccc(NC(=O)c2ccccc2SSc2ccccc2C(=O)Nc2ccc(S(=O)(=O)NC(C)=O)cc2)cc1` has a melting point of 180 to 182 °C.
In the case of `O=c1[nH]c(=O)n(CCCCN2CCC(OC(c3ccccc3)c3ccccc3)CC2)c2cc(Cl)ccc12`, the melting point is reported as 169 to 171 °C.
Work on `O=C(O)c1ccc2c(=O)n3nc(C(=O)O)ccc3nc2c1` yielded a melting point of over 360 °C.
For `C[Si](C)(C)OC1c2cc(Br)ccc2-c2ccc(Br)cc2C1O[Si](C)(C)C` (stereo unspecified), the melting point was 144 to 145 °C.
`CC1(CC(CO)CO)SCCS1` gave a melting point of 72 to 73 °C.
`CC(=O)c1c[nH]c2cc(O)ccc12` showed a melting point of 135 to 140 °C.
Work on `N=C(N)NC(=O)Cn1c(C(=O)c2ccccc2)ccc1-c1ccccc1` yielded a melting point of 201 to 203 °C.
With `CN(C)C1CCN(c2nc(N3CCOCC3)c3ncnc(NCc4ccccc4)c3n2)CC1` the melting point was 148 to 150 °C.
Molecule `COc1cc(C(=O)n2c3c(c4ccccc42)CC(C(=O)O)CC3)cc(OC)c1OC` (stereo unspecified) has a melting point of 234 to 236 °C.
In the case of `Cc1cc(C(C)(C)C)cc(CN)c1S`, the melting point is reported as 127 to 131 °C.
In the case of `COC(=O)c1c(O)ccn1C`, the melting point is reported as 44 to 46 °C.
Molecule `COc1cccc([C@H]2O[C@H](CC(=O)Nc3ccc(OCCCc4ccccc4)c(CCC(=O)O)c3)C(=O)N(CC(C)(C)CO)c3ccc(Cl)cc32)c1OC` has a melting point of 147 to 149 °C.
Molecule `N#CC(Cc1ccccc1)(Cc1ccccc1)C(=O)O` has a melting point of 194 °C.
`O=C1c2cc(OCc3ccc4ccccc4n3)ccc2CCC1Cc1ccccc1` (stereo unspecified) showed a melting point of 117 to 118 °C.
Molecule `CN1CCc2cc(CO)sc2C(c2ccccc2)C1` (stereo unspecified) has a melting point of 112 °C.
Work on `Cc1ccc2c(c1)Sc1ccc(Cl)cc1CC2N1CCN(CCN2CCOC2=O)CC1` (stereo unspecified) yielded a melting point of 161 to 163 °C.
`CC(C)C(=O)NC1CCc2c(c3cc(C#N)ccc3n2Cc2ccccc2C(F)(F)F)C1` (stereo unspecified) gave a melting point of 222 to 225 °C.
`C[C@H](N)c1ccc(O)cc1` gave a melting point of 120 °C.
`CC(C)(C)OC(=O)N1CCn2c(Cl)cc(C(N)=O)c2C1` showed a melting point of 223 to 225 °C.
For `CNC(=O)Oc1ccc(NC(=O)C(Cl)(Cl)Cl)c(C)c1`, the melting point was 185 to 187 °C.
With `O=C(O)C1Cc2cc3c(=O)c4c(F)cccc4oc3c(Cl)c2O1` (stereo unspecified) the melting point was 300 °C.
In the case of `COc1ccc(C(=O)NCCBr)c([N+](=O)[O-])c1`, the melting point is reported as 134 °C.
In the case of `OCC1=Cc2cccc(OCc3ccccc3)c2CC1`, the melting point is reported as 59 to 61 °C.
In the case of `CCCc1nc2c(N)ncc(Br)c2n1CCOCCNC(=O)NC1CCCCC1`, the melting point is reported as 185 to 186 °C.
For `CC(C)(C)OC(=O)N[C@@H](Cc1c[nH]c2ccccc12)c1nc2c(C(F)(F)F)cccc2c(O)c1C(=O)Nc1nccs1`, the melting point was 270 °C.
Work on `CC(C=NO)n1nnc2ccc(Oc3cc(F)c(C(F)(F)F)c(Cl)c3)cc21` (stereo unspecified) yielded a melting point of 148 to 151 °C.
